Molecular target: T1, human TLR8 (Homo sapiens, UniProt Q9NR97)
T1 sequence (Q9NR97 27-1041): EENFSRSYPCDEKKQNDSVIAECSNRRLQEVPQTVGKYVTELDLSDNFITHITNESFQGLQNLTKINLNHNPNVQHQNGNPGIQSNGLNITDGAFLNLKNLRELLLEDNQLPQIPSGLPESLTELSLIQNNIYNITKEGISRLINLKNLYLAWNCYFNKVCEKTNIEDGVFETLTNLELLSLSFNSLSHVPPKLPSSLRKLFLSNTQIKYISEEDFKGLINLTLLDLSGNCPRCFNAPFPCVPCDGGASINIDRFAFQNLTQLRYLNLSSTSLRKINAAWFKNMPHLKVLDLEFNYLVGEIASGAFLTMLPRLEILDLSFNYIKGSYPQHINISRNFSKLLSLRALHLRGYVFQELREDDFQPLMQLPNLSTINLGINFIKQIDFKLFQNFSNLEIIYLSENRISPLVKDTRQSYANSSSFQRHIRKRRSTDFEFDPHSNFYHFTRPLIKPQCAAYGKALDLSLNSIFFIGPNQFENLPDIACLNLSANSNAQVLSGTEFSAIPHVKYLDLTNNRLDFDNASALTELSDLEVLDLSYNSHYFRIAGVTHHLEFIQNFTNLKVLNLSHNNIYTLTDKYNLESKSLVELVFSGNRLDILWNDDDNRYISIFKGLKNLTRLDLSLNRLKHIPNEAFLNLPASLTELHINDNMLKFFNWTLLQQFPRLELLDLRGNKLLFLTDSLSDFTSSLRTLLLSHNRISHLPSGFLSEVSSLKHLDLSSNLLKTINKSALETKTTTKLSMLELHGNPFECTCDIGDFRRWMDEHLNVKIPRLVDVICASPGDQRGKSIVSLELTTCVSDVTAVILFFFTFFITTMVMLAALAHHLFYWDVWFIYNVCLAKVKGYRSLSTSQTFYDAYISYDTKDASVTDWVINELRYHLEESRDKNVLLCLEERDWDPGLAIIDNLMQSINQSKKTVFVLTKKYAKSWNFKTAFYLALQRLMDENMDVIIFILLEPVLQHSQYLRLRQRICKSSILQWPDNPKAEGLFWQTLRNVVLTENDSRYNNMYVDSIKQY
Test: HEK293-Blue-hTLR-8 cells assay (SEAP reporter, R848 stimulation)
Assay type: cell-based
Conditions: HEK293-Blue-hTLR8 cells, R848 ligand, 20 h incubation
Protocol: The following tests were carried out in order to determine the activity of the compounds of formula (I) in HEK293-Blue-hTLR-7/8/9 cells assay.
HEK293-Blue-hTLR-8 Cells Assay:
A stable HEK293-Blue-hTLR-8 cell line was purchased from InvivoGen (Cat. #: hkb-htlr8, San Diego, Calif., USA). These cells were originally designed for studying the stimulation of human TLR8 by monitoring the activation of NF-κB. A SEAP (secreted embryonic alkaline phosphatase) reporter gene was placed under the control of the IFN-β minimal promoter fused to five NF-κB and AP-1-binding sites. The SEAP was induced by activating NF-κB and AP-1 via stimulating HEK-Blue hTLR8 cells with TLR8 ligands. Therefore the reporter expression was declined by TLR8 antagonist under the stimulation of a ligand, such as R848, for incubation of 20 h. The cell culture supernatant SEAP reporter activity was determined using QUANTI-Blue™ kit (Cat. #: rep-qb1, Invivogen, San Diego, Calif., USA) at a wavelength of 640 nm, a detection medium that turns purple or blue in the presence of alkaline phosphatase.
HEK293-Blue-hTLR8 cells were incubated at a density of 250,000˜450,000 cells/mL in a volume of 170 μL in a 96-well plate in Dulbecco's Modified Eagle's medium (DMEM) containing 4.5 g/L glucose, 50 U/mL penicillin, […], […], 2 mM L-glutamine, 10% (v/v) heat-inactivated fetal bovine serum with addition of 20 μL test compound in a serial dilution in the presence of final DMSO at 1% and 10 μL of 60 uM R848 in above DMEM, perform incubation under 37° C. in a CO2 incubator for 20 h. Then 20 μL of the supernatant from each well was incubated with 180 μL Quanti-blue substrate solution at 37° C. for 2 h and the absorbance was read at 620˜655 nm using a spectrophotometer. The signalling pathway that TLR8 activation leads to downstream NF-κB activation has been widely accepted, and therefore similar reporter assay was modified for evaluating TLR8 antagonist.

Structure (SMILES) | IC50
C[C@@H]1CN(c2ccc(C#N)c3ncccc23)C[C@H](C2=Nc3cccc(N4CCNCC4)c3CN2)O1 [Example 6, 5-[(2R,6R)-2-methyl-6-(5-piperazin-1-yl-3,4-dihydroquinazolin-2-yl)morpholin-4-yl]quinoline-8-carbonitrile] | 8 nM
C[C@@H]1CN(c2ccc(C#N)c3ncccc23)C[C@H](C2=Nc3ccc(N4CCNCC4)cc3CN2)O1 [Example 7, 5-[(2R,6R)-2-methyl-6-(6-piperazin-1-yl-3,4-dihydroquinazolin-2-yl)morpholin-4-yl]quinoline-8-carbonitrile] | < 3 nM
C[C@@H]1CN(c2ccc(C#N)c3ncccc23)C[C@H](C2=Nc3cc(N4CCNCC4)ccc3CN2)O1 [Example 8, 5-[(2R,6R)-2-methyl-6-(7-piperazin-1-yl-3,4-dihydroquinazolin-2-yl)morpholin-4-yl]quinoline-8-carbonitrile] | 4 nM
C[C@@H]1CN(c2ccc(C#N)c3ncccc23)C[C@H](C2=Nc3c(cccc3N3CCNCC3)CN2)O1 [Example 9, 5-[(2R,6R)-2-methyl-6-(8-piperazin-1-yl-3,4-dihydroquinazolin-2-yl)morpholin-4-yl]quinoline-8-carbonitrile] | 46 nM
C[C@@H]1CN(c2ccc(C#N)c3ncccc23)C[C@H](C2=Nc3cccc(N4CCN(C)CC4)c3CN2)O1 [Example 12, 5-[(2R,6R)-2-methyl-6-[5-(4-methylpiperazin-1-yl)-3,4-dihydroquinazolin-2-yl]morpholin-4-yl]quinoline-8-carbonitrile] | 14 nM
C[C@@H]1CN(c2ccc(C#N)c3ncccc23)C[C@H](C2=Nc3cccc(N4CCC5(CCNC5)C4)c3CN2)O1 (stereo partly drawn) [Example 13, 5-[(2R,6R)-2-[5-(2,7-diazaspiro[4.4]nonan-2-yl)-3,4-dihydroquinazolin-2-yl]-6-methyl-morpholin-4-yl]quinoline-8-carbonitrile] | 87 nM

Results, then the compound that gave them:

IC50 | Structure (SMILES)
191 nM | C[C@@H]1CN(c2ccc(C#N)c3ncccc23)C[C@H](C2=Nc3cccc(C4=CCNCC4)c3CCN2)O1 [Example 16, 5-[(2R,6R)-2-methyl-6-[6-(1,2,3,6-tetrahydropyridin-4-yl)-4,5-dihydro-3H-1,3-benzodiazepin-2-yl]morpholin-4-yl]quinoline-8-carbonitrile]
148 nM | C[C@@H]1CN(c2ccc(C#N)c3ncccc23)C[C@H](C2=Nc3ccc(N4CCNCC4)cc3CCN2)O1 [Example 17, 5-[(2R,6R)-2-methyl-6-(7-piperazin-1-yl-4,5-dihydro-3H-1,3-benzodiazepin-2-yl)morpholin-4-yl]quinoline-8-carbonitrile]
71 nM | C[C@@H]1CN(c2ccc(C#N)c3ncccc23)C[C@H](C2=Nc3cccc(C4CCNCC4)c3CN2)O1 [Example 18, 5-[(2R,6R)-2-methyl-6-[5-(4-piperidyl)-3,4-dihydroquinazolin-2-yl]morpholin-4-yl]quinoline-8-carbonitrile]

Source: US11548884B2, “Cyclic amidine compounds for the treatment of autoimmune disease” (Hoffmann-La Roche Inc., priority 2018, dated 2023)
